This passage reports IC50 results from patent publication US20240336588A1, “COMPOSITIONS AND METHODS FOR ANTIOXIDANT AND ANTI-INFLAMMATORY THERAPEUTICS” (AVANTI BIOSCIENCES INC., priority 2021, published 2024).

The structures appear in SMILES notation.

Usually IC50 stands for the midpoint of a concentration-inhibition curve.

The target in this test is DYRK1A (HT-497, 6×His tagged rat truncated DYRK1A isoform X1 residues 1-497) (Rattus norvegicus (Rat), UniProt Q63470). Nature of the test: DYRK1A ELISA assay (HT-PRD phosphorylation). As to conditions: 100 µM ATP, 5 ng HT-497, 30 min at 30° C. The format is biochemical. The method, then: Compounds of Table 1, above, were examined in vitro for activity against DYRK1A, DYRK1B, DYRK2 via an ELISA assay.
DYRK1A assay. […] After blocking, wells were washed extensively with dilution buffer before subjecting to phosphorylation. […] At the end point, wells were washed with ˜350 μl dilution buffer three times to terminate the reaction. […] Each point was run in quadruplicate with DMSO present in all assays at 0.2% final concentration. […] HT-PRD phosphorylation was subsequently determined by the sandwich antibody staining protocol, first with 100 μl mouse mAb 3D3 specific for detecting DYRK1A-phosphorylated PRD (60 min at room temperature) then with 100 μl alkaline phosphatase (AP)-linked anti-mouse secondary antibody (60 min at room temperature), followed by colorimetric reaction with 100 μl PNPP solution (PNPP substrate tablet, Thermo Fisher). […] The readings were then recorded for subsequent IC50 calculation. The DYRK1A assay protocol can also support DYRK1B and DYRK2 phosphorylation reactions in the enzyme concentration-dependent manner; therefore, the method was adapted for measuring the activity of candidate compounds against DYRK1B and DYRK2. For DYRK2, the reactions were performed as described above with 6 ng HT-DYRK2 (6×His tagged full-length human DYRK2 isoform 1). For DYRK1B, the assays were also similarly conducted but with 70 ng GST-DYRK1B (glutathione S-transferase tagged full length human DYRK1B isoform p65) and an extended kinase reaction time of 60 min.
Dilution factors for both mAb 3D3 and secondary antibody were pre-determined for each batch of antibody to ensure that neither antibody was limiting in the assay.
Data transformation, calculation, plotting, curve fitting, and IC 50 calculation were performed in KaleidaGraph (http://www.synergy.com/wordpress_650164087; Mac version 4.1). Data was corrected for background (readings from wells with only PNPP) before subsequent manipulations. […] The resulting residual activity was then plotted against its corresponding inhibitor concentrations in semi-log graph and the plot was fit to the sigmoidal equation, y=a+(b−a)/(1+(x/c)^d), for IC50 calculation.
Background: ELISA stands for enzyme-linked immunosorbent assay.
As to `Nc1ncc(C(=O)O[C@@H]2Cc3c(O)cc(O)cc3O[C@H]2c2cc(O)c(O)c(O)c2)cc1O` [Compound 36, (2S,3R)-5,7-dihydroxy-2-(3,4,5-trihydroxyphenyl)chroman-3-yl 6-amino-5-hydroxynicotinate], the concentration for half-maximal inhibition (IC50) is greater than 1000 nM. With `O=C(O[C@@H]1Cc2c(O)cc(O)cc2O[C@H]1c1cc(O)c(O)c(O)c1)c1cc(O)c(O)cc1O` [Compound 42, (2S,3R)-5,7-dihydroxy-2-(3,4,5-trihydroxyphenyl)chroman-3-yl 2,4,5-trihydroxybenzoate], the half-inhibitory concentration (IC50) is greater than 100 nM.

As for `O=C(O[C@@H]1Cc2ccccc2C[C@H]1c1cc(O)c(O)c(O)c1)c1cc(O)c(O)c(O)c1` [Compound 53, (2R,3S)-3-(3,4,5-trihydroxyphenyl)-1,2,3,4-tetrahydronaphthalen-2-yl 3,4,5-trihydroxybenzoate], the IC50 is greater than 1000 nM. For the compound `CC(C)Oc1c(O)c(O)c(F)c(C(=O)O[C@@H]2Cc3c(O)cc(O)cc3O[C@H]2c2cc(O)c(O)c(O)c2)c1F` [Compound 61, (2S,3R)-5,7-dihydroxy-2-(3,4,5-trihydroxyphenyl)chroman-3-yl 2,6-difluoro-3,4-dihydroxy-5-isopropoxybenzoate], the IC50 was greater than 100 nM. Turning to `O=C(O[C@@H]1Cc2c(O)cc(O)cc2O[C@@H]1c1cc(O)c(O)c(O)c1)c1ccncc1` [Compound 23, (2R,3R)-5,7-dihydroxy-2-(3,4,5-trihydroxyphenyl)chroman-3-yl isonicotinate], the IC50 was greater than 1000 nM. Consider `O=C(N[C@H]1Cc2c(O)cc(O)cc2O[C@@H]1c1cc(O)c(O)c(O)c1)c1ccc(O)cc1` [Compound 16, N-((2R,3S)-5,7-dihydroxy-2-(3,4,5-trihydroxyphenyl)chroman-3-yl)-4-hydroxybenzamide], for which the IC50 is greater than 1000 nM. With `O=C(O[C@@H]1Cc2c(O)cc(O)cc2O[C@H]1c1cc(O)c(O)c(O)c1)c1cc(O)c(O)c(OC(F)F)c1` [Compound 60, (2S,3R)-5,7-dihydroxy-2-(3,4,5-trihydroxyphenyl)chroman-3-yl 3-(difluoromethoxy)-4,5-dihydroxybenzoate], the IC50 is greater than 100 nM. As to `O=C(O[C@@H]1Cc2c(O)cc(O)cc2O[C@H]1c1ccc(O)c(O)c1)c1ccc(O)c(O)c1` [Compound 31, (2S,3R)-2-(3,4-dihydroxyphenyl)-5,7-dihydroxychroman-3-yl 3,4-dihydroxybenzoate], the IC50 was greater than 100 nM. Consider `O=C(O[C@H]1Cc2c(O)cc(O)cc2O[C@@H]1c1ccc(O)c(O)c1)c1ccc(O)c(O)c1` [Compound 28, (2R,3S)-2-(3,4-dihydroxyphenyl)-5,7-dihydroxychroman-3-yl 3,4-dihydroxybenzoate], for which the 50% inhibitory concentration (IC50) was greater than 1000 nM. As for `CCNC(=O)Oc1c(O)cc(C(=O)O[C@@H]2Cc3c(O)cc(O)cc3O[C@@H]2c2cc(O)c(O)c(O)c2)cc1O` [Compound 13, (2R,3R)-5,7-dihydroxy-2-(3,4,5-trihydroxyphenyl)chroman-3-yl 4-((ethylcarbamoyl)oxy)-3,5-dihydroxybenzoate], the IC50 is greater than 1000 nM. In the case of `O=C(O[C@@H]1Cc2c(O)cc(O)cc2O[C@H]1c1cc(O)c(O)c(O)c1)[C@H]1CC[C@@H](O)CC1` [Compound 43, (2S,3R)-5,7-dihydroxy-2-(3,4,5-trihydroxyphenyl)chroman-3-yl (1s,4S)-4-hydroxycyclohexane-1-carboxylate], the IC50 was greater than 1000 nM. For the compound `O=C(O[C@@H]1Cc2c(O)cc(O)cc2O[C@H]1c1ccc(O)c(O)c1)c1cc(O)c(O)c(O)c1` [Compound 7, (2S,3R)-2-(3,4-dihydroxyphenyl)-5,7-dihydroxychroman-3-yl 3,4,5-trihydroxybenzoate], the IC50 is greater than 100 nM. With `COc1c(O)c(O)cc(C(=O)O[C@@H]2Cc3c(O)cc(O)cc3O[C@H]2c2cc(O)c(O)c(O)c2)c1F` [Compound 50, (2S,3R)-5,7-dihydroxy-2-(3,4,5-trihydroxyphenyl)chroman-3-yl 2-fluoro-4,5-dihydroxy-3-methoxybenzoate], the IC50 was greater than 100 nM.
